pIC50: −log10 of the molar value. Read-outs that look alike come from different tables or passages of the source.
Tests used:
EGFR^L858R/T790M/C^797S = EGFR^L858R/T790M/C^797S (Homo sapiens, UniProt P00533, C797S/L858R/T790M); test: in vitro kinase assay (HTRF KinEASE-TK kit), LTC; format: biochemical; settings: kinase inhibition
Excerpt: (§1) Assays using an in vitro kinase assay kit (HTRF KinEASE-TK kit) can be used to study the inhibitory activity of compounds described herein with respect to EGFR mutants such as EGFR^L858R, EGFR^L58R/T790M, and EGFR^L858R/T790M/C^797S.

EGFR^L58R/T790M = EGFR^L58R/T790M (Homo sapiens, UniProt P00533, L858R/T790M); test: in vitro kinase assay (HTRF KinEASE-TK kit), LT; format: biochemical; settings: kinase inhibition
Excerpt: as §1

EGFR^L858R = EGFR^L858R (Homo sapiens, UniProt P00533, L858R); test: in vitro kinase assay (HTRF KinEASE-TK kit), L; format: biochemical; settings: kinase inhibition
Excerpt: as §1

[1] = target: Ba/F3 EGFR-Del19/T790M/C797S (Homo sapiens, UniProt P00533, T790M/C797S, cells depend on it, form not given); test: Ba/F3 viability assay (CellTiter-Glo), DTC; format: cell-based; settings: anti-proliferation, read-out: BaF3 DTC IC50
Excerpt: (§2) Inhibition of cell proliferation can be studied using Ba/F3 viability assays, including the Promega CellTiter-Glo cell viability assay. This assay can be used to study the effect of compounds described herein in the following assays: (1) Ba/F3 Parental; (2) Ba/F3 EGFR-Del19/T790M; (3); Ba/F3 EGFR-Del19/C797S; and (4) Ba/F3 EGFR-Del19/T790M/C797S.

Ba/F3 EGFR-Del19/T790M = Ba/F3 EGFR-Del19/T790M (Homo sapiens, UniProt P00533, T790M, cells depend on it, form not given); test: Ba/F3 viability assay (CellTiter-Glo), DT; format: cell-based; settings: anti-proliferation, read-out: BaF3 DT IC50
Excerpt: as §2

Ba/F3 EGFR-Del19/C797S = Ba/F3 EGFR-Del19/C797S (Homo sapiens, UniProt P00533, C797S, cells depend on it, form not given); test: Ba/F3 viability assay (CellTiter-Glo), DC; format: cell-based; settings: anti-proliferation, read-out: BaF3 DC IC50
Excerpt: as §2

Ba/F3 Parental = test: Ba/F3 viability assay (CellTiter-Glo), parental; format: cell-based
Excerpt: as §2

[2] = Mus musculus, BaF3, anti-proliferation

EGFR^L858R/T790M/C^797S, sequence (P00533 25-1210 T790M/C797S/L858R): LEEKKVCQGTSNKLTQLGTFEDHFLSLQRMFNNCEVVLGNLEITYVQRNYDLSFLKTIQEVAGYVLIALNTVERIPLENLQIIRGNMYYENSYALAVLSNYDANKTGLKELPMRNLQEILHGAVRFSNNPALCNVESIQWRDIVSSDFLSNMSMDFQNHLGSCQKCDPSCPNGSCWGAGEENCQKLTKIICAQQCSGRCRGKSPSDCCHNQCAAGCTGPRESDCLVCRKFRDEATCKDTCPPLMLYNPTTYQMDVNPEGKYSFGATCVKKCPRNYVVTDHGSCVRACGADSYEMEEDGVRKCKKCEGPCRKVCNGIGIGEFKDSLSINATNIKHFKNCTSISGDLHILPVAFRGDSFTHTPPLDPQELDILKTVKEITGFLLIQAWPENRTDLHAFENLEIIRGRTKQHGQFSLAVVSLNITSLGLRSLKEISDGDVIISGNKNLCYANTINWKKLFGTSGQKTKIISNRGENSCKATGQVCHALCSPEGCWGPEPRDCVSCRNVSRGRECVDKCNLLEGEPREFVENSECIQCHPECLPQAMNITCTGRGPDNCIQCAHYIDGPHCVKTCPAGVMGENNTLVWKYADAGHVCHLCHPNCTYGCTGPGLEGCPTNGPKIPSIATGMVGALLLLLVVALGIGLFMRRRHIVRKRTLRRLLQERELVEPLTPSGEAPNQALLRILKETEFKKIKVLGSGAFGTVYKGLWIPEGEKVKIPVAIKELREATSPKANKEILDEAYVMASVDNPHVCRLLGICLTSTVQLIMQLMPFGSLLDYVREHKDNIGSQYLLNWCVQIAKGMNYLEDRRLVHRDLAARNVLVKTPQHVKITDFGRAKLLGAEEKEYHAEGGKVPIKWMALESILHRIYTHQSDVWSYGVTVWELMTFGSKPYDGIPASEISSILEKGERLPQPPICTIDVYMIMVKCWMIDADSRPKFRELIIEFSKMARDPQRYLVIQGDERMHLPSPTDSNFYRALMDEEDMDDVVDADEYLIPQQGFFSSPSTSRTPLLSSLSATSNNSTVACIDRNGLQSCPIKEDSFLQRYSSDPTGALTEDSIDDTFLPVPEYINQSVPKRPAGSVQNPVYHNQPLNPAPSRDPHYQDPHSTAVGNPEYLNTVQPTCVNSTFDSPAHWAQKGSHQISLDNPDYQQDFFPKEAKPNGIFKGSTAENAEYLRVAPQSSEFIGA
Ba/F3 EGFR-Del19/T790M/C797S, sequence (P00533 with tags, fused parts or gaps DEL746-750/T790M/C797S, form open): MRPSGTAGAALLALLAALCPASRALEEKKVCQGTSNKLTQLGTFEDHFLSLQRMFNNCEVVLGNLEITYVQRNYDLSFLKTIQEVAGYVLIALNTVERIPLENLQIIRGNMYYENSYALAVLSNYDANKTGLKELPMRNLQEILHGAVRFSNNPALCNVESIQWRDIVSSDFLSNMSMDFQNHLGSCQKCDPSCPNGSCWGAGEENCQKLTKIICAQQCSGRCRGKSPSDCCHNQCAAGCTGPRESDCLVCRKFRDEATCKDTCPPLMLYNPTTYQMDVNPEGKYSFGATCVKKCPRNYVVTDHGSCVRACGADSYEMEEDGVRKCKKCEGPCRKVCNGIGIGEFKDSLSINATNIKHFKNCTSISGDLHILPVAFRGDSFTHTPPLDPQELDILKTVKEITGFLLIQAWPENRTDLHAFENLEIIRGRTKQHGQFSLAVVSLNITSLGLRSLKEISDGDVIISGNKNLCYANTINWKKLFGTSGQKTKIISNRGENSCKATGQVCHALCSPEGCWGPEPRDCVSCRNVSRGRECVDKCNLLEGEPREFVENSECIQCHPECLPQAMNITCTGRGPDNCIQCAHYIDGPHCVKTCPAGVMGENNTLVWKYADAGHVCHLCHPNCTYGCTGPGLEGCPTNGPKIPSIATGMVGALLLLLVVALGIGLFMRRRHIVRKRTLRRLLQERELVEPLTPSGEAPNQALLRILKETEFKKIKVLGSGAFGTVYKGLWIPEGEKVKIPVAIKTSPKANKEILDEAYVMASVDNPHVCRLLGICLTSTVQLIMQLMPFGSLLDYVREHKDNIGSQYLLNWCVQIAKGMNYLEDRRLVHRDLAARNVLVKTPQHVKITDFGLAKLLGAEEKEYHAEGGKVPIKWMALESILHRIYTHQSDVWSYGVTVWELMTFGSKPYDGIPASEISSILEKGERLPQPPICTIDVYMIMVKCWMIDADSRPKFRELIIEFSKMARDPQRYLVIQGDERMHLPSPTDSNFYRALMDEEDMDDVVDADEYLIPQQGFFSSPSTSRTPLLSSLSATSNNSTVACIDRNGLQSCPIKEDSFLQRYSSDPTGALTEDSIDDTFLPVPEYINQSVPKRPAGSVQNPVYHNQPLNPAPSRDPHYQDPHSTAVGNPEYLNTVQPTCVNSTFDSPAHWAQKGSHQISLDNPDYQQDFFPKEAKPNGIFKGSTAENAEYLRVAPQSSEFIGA
EGFR^L858R, sequence (P00533 25-1210 L858R): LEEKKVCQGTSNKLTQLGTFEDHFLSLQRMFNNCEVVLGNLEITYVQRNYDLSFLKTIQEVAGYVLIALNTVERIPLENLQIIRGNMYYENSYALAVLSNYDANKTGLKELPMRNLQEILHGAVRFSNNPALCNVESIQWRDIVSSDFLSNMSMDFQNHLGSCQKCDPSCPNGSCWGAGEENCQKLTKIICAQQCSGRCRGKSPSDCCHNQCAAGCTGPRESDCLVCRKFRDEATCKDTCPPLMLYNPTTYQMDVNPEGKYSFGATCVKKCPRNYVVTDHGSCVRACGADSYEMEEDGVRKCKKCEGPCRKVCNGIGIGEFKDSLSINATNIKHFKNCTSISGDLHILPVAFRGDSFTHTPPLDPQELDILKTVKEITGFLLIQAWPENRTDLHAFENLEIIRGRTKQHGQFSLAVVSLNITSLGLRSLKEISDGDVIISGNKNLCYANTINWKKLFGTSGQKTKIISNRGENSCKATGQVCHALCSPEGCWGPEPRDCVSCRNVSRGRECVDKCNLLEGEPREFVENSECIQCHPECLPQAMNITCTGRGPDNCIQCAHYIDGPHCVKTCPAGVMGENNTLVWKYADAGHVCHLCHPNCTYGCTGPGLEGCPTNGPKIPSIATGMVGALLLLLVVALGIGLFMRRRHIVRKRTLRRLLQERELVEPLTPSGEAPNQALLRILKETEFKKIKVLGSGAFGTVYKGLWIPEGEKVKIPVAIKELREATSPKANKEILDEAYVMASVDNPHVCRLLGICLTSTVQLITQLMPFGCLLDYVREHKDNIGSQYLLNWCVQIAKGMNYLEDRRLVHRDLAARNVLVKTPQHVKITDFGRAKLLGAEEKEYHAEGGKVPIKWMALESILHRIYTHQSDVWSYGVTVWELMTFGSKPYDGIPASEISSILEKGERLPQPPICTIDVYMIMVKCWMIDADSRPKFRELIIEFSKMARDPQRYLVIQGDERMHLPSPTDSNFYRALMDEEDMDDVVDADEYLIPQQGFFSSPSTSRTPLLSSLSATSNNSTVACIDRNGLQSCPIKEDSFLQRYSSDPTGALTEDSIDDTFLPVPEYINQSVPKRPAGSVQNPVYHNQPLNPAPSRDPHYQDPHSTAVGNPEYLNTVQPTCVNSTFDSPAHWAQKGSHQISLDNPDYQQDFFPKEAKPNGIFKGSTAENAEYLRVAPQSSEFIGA
EGFR^L58R/T790M, sequence (P00533 25-1210 T790M/L858R): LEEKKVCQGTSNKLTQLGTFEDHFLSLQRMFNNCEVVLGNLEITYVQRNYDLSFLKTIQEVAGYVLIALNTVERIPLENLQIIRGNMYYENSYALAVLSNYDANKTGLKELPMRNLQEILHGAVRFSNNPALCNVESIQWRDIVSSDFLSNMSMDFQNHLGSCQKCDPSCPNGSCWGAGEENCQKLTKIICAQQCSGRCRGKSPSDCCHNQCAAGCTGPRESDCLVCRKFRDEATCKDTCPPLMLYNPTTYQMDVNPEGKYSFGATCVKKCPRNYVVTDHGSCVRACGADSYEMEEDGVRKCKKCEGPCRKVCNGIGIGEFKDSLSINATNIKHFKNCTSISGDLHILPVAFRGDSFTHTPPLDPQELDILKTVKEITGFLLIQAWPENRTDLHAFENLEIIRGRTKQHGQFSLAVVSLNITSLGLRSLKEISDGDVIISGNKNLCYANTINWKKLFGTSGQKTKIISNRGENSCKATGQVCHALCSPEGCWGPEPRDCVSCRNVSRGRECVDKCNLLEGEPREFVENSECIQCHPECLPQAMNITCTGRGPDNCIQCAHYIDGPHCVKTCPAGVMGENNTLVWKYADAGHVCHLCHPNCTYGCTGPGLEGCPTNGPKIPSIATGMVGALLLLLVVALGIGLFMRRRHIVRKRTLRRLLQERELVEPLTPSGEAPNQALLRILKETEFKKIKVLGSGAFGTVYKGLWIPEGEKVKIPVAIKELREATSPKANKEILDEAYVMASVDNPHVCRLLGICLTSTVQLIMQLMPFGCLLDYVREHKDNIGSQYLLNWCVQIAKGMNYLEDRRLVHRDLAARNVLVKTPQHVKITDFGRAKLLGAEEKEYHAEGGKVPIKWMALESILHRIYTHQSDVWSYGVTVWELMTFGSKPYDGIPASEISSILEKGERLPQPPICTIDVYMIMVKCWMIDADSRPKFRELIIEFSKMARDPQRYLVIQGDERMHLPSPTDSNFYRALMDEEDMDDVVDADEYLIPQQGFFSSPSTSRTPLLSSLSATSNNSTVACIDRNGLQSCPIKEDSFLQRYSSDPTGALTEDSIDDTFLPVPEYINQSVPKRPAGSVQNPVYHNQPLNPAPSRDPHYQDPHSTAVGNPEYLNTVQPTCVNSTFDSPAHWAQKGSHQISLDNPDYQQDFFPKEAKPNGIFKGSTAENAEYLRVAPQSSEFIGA

| SMILES | pIC50 (EGFR^L858R/T790M/C^797S) | pIC50 (EGFR^L58R/T790M) | pIC50 (EGFR^L858R) | GI50 [1] [nM] | GI50 (Ba/F3 EGFR-Del19/T790M) [nM] | GI50 (Ba/F3 EGFR-Del19/C797S) [nM] | pIC50 (Ba/F3 Parental; anti-proliferation, read-out: BaF3 parental IC50) | pIC50 (Ba/F3 Parental; [2]) |
| --- | --- | --- | --- | --- | --- | --- | --- | --- |
| C[C@@H]1CCCOc2c(cnn2C)-c2nccc(n2)Nc2cc3c(cn2)c(N2CCC2)nn31 [(77)] | 6.00 to 7.00 | 7.00 to 8.00 | ≤ 6.00 | 100 to 1000 | ≥ 1000 | 100 to 1000 | ≤ 6.00 |  |
| CC(C)N1CCN(CC2CCN(c3nn4c5cc(ncc35)Nc3ccnc(n3)-c3cnn(C)c3OCC[C@@H]4C)C2)CC1 (stereo partly shown) [(93)] | > 8.00 | > 8.00 | > 8.00 | < 10 | < 10 | < 10 |  | 7.00 to 8.00 |
| CC1CCCOc2c(cnn2C)-c2nccc(n2)Nc2cc3c(cn2)c(-c2nnc(CN4CCN(C)CC4)o2)nn31 (stereo not shown) [(94)] | > 8.00 | > 8.00 | 6.00 to 7.00 | 100 to 1000 | 100 to 1000 | 100 to 1000 |  | ≤ 6.00 |
| C[C@H]1CCOc2c(cnn2C)-c2nccc(n2)Nc2cc3c(cn2)c(-c2cc(CN4CCN(C)CC4)n(C)n2)nn31 [(95)] | > 8.00 | > 8.00 | > 8.00 | 10 to 100 | 10 to 100 | 10 to 100 |  | 6.00 to 7.00 |
| C[C@H]1CCOc2c(cnn2C)-c2nccc(n2)Nc2cc3c(cn2)c(-c2ccnc(N4CCN(C)CC4)c2)nn31 [(96)] | > 8.00 | > 8.00 | > 8.00 | 10 to 100 | 10 to 100 | 10 to 100 |  | 6.00 to 7.00 |
| C[C@H]1CCOc2c(cnn2C)-c2nccc(n2)Nc2cc3c(cn2)c(N2CCN(C4CC4)CC2)nn31 [(97)] | 7.00 to 8.00 | > 8.00 | 6.00 to 7.00 | 100 to 1000 | 100 to 1000 | 100 to 1000 |  | ≤ 6.00 |
| C[C@H]1CCOc2c(cnn2C)-c2nccc(n2)Nc2cc3c(cn2)c(-c2cccc(CN4CCN(C)CC4)c2)nn31 [(98)] | > 8.00 | > 8.00 | > 8.00 | 10 to 100 | 10 to 100 | 10 to 100 |  | 6.00 to 7.00 |
| C[C@H]1CCOc2c(cnn2C)-c2nccc(n2)Nc2cc3c(cn2)c(-c2ccncc2)nn31 [(100)] | > 8.00 | > 8.00 | 7.00 to 8.00 | 10 to 100 | 10 to 100 | 10 to 100 |  | 6.00 to 7.00 |
| C[C@H]1CCOc2c(cnn2C)-c2nccc(n2)Nc2cc3c(cn2)c(-c2ccc(CN4CCN(C)CC4)n2C)nn31 [(101), (16S)-11,16-dimethyl-19-[1-methyl-5-[(4-methylpiperazin-1-yl)methyl]pyrrol-2-yl]-13-oxa-2,6,10,11,17,18,22,25-octazapentacyclo[15.5.2.13,7.08,12.020,24]pentacosa-1(22),3,5,7(25),8(12),9,18,20,23-nonaene] | > 8.00 | > 8.00 | > 8.00 | < 10 | < 10 | < 10 |  | 6.00 to 7.00 |
| C[C@H]1CCOc2c(cnn2C)-c2nccc(n2)Nc2cc3c(cn2)c(-c2cnn(CCN(C)C)c2)nn31 [(102)] | > 8.00 | > 8.00 | > 8.00 | 10 to 100 | 10 to 100 | 10 to 100 |  | 6.00 to 7.00 |
| C[C@H]1CCOc2c(cnn2C)-c2nccc(n2)Nc2cc3c(cn2)c(-c2csc(CN4CCN(C)CC4)n2)nn31 [(103)] | > 8.00 | > 8.00 | > 8.00 | < 10 | < 10 | 10 to 100 |  | 6.00 to 7.00 |
| C[C@H]1CCOc2c(cnn2C)-c2nccc(n2)Nc2cc3c(cn2)c(N2CCOCC2)nn31 [(104)] | > 8.00 | > 8.00 | 7.00 to 8.00 | 10 to 100 | 10 to 100 | 10 to 100 |  | 6.00 to 7.00 |
| C[C@H]1CCOc2c(cnn2C)-c2nccc(n2)Nc2cc3c(cn2)c(-c2cc(CN4CCOCC4)n(C)n2)nn31 [(105)] | > 8.00 | > 8.00 | > 8.00 | < 10 | < 10 | 10 to 100 |  | ≤ 6.00 |
| C[C@H]1CCOc2c(cnn2C)-c2nccc(n2)Nc2cc3c(cn2)c(-c2cnc(CN4CCN(C)CC4)s2)nn31 [(106)] | > 8.00 | > 8.00 | > 8.00 | 10 to 100 | 10 to 100 | < 10 |  | 6.00 to 7.00 |
| C[C@H]1CCOc2c(cnn2C)-c2nccc(n2)Nc2cc3c(cn2)c(-c2ncc(CN4CCN(C)CC4)s2)nn31 [(107), (16S)-11,16-dimethyl-19-[5-[(4-methylpiperazin-1-yl)methyl]thiazol-2-yl]-13-oxa-2,6,10,11,17,18,22,25-octazapentacyclo[15.5.2.13,7.08,12.020,24]pentacosa-1(22),3,5,7(25),8(12),9,18,20,23-nonaene] | > 8.00 | > 8.00 | > 8.00 | < 10 | < 10 | < 10 |  | 6.00 to 7.00 |
| C[C@H]1CCOc2c(cnn2C)-c2nccc(n2)Nc2cc3c(cn2)c(-c2cccc(N4CCC(N(C)C)CC4)c2)nn31 [(108)] | > 8.00 | > 8.00 | > 8.00 | < 10 | 10 to 100 | 10 to 100 |  | 6.00 to 7.00 |
| C[C@H]1CCOc2c(cnn2C)-c2nccc(n2)Nc2cc3c(cn2)c(-c2ccn(C)c2)nn31 [(109)] | > 8.00 | > 8.00 | > 8.00 | < 10 | < 10 | < 10 |  | 6.00 to 7.00 |

The next lines start with results.

| pIC50 (EGFR^L858R/T790M/C^797S) | pIC50 (EGFR^L58R/T790M) | pIC50 (EGFR^L858R) | SMILES | GI50 [1] [nM] | GI50 (Ba/F3 EGFR-Del19/T790M) [nM] | GI50 (Ba/F3 EGFR-Del19/C797S) [nM] | pIC50 (Ba/F3 Parental; anti-proliferation, read-out: BaF3 parental IC50) | pIC50 (Ba/F3 Parental; [2]) |
| --- | --- | --- | --- | --- | --- | --- | --- | --- |
| > 8.00 | > 8.00 | 7.00 to 8.00 | C[C@H]1CCCOc2c(cnn2C)-c2nccc(n2)Nc2cc3c(cn2)c(N2CCC2)nn31 [(78)] | 10 to 100 | 10 to 100 | 10 to 100 |  | 6.00 to 7.00 |
| > 8.00 | > 8.00 | > 8.00 | CCn1cc(-c2nn3c4cc(ncc24)Nc2ccnc(n2)-c2cnn(C)c2OCCC3C)cc1CN1CCN(C(C)C)CC1 (stereo not shown) [(80)] | < 10 | < 10 | < 10 |  | 7.00 to 8.00 |
| > 8.00 | > 8.00 | 6.00 to 7.00 | CCn1cc(CN2CCN(C)CC2)cc1-c1nn2c3cc(ncc13)Nc1ccnc(n1)-c1cnn(C)c1OCCC2C (stereo not shown) [(82)] | 10 to 100 | 10 to 100 | 10 to 100 |  | 7.00 to 8.00 |
| > 8.00 | > 8.00 | 7.00 to 8.00 | CC1CCOc2c(cnn2C)-c2nccc(n2)Nc2cc3c(cn2)c(-c2cc(CN4CCN(C)CC4)cn2C)nn31 (stereo not shown) [(83)] | 10 to 100 | 10 to 100 | 10 to 100 |  | 7.00 to 8.00 |
| > 8.00 | > 8.00 | 7.00 to 8.00 | CC1CCCOc2c(cnn2C)-c2nccc(n2)Nc2cc3c(cn2)c(-c2cc(CN4CCN(C)CC4)nn2C)nn31 (stereo not shown) [(84)] | 10 to 100 | 10 to 100 | 100 to 1000 |  | 6.00 to 7.00 |
| > 8.00 | > 8.00 | 7.00 to 8.00 | CCn1ccc(-c2nn3c4cc(ncc24)Nc2ccnc(n2)-c2cnn(C)c2OCCCC3C)n1 (stereo not shown) [(85)] | < 10 | < 10 | 10 to 100 |  | ≤ 6.00 |
| > 8.00 | > 8.00 | 7.00 to 8.00 | CCn1nccc1-c1nn2c3cc(ncc13)Nc1ccnc(n1)-c1cnn(C)c1OCCCC2C (stereo not shown) [(86)] | 10 to 100 | 10 to 100 | 10 to 100 |  | ≤ 6.00 |
| > 8.00 | > 8.00 | 7.00 to 8.00 | CC1CCCOc2c(cnn2C)-c2nccc(n2)Nc2cc3c(cn2)c(-c2ccc(CN4CCN(C5CC5)CC4)o2)nn31 (stereo not shown) [(87)] | < 10 | 10 to 100 | 10 to 100 |  | 6.00 to 7.00 |
| > 8.00 | > 8.00 | 7.00 to 8.00 | CCn1cc(C(=O)N2CCN(C)CC2)cc1-c1nn2c3cc(ncc13)Nc1ccnc(n1)-c1cnn(C)c1OCCC2C (stereo not shown) [(88)] | 100 to 1000 | 100 to 1000 | 100 to 1000 |  | 6.00 to 7.00 |
| > 8.00 | > 8.00 | 7.00 to 8.00 | Cc1nn(CCC(C)(C)O)cc1-c1nn2c3cc(ncc13)Nc1ccnc(n1)-c1cnn(C)c1OCCCC2C (stereo not shown) [(89)] | 10 to 100 | 10 to 100 | 10 to 100 |  | 6.00 to 7.00 |
| > 8.00 | > 8.00 | 7.00 to 8.00 | Cc1c(-c2nn3c4cc(ncc24)Nc2ccnc(n2)-c2cnn(C)c2OCCCC3C)cnn1CCC(C)(C)O (stereo not shown) [(92)] | 10 to 100 | 10 to 100 | 10 to 100 |  | 6.00 to 7.00 |

Source: US20230148005A1, “MACROCYCLIC COMPOUNDS AND USES THEREOF” (THESEUS PHARMACEUTICALS, INC., priority 2020, published 2023)
